The subject of experiment [1] is hIL17. Put plainly: IL-17 release from differentiated primary human T-cells (IL-17A HTRF assay). It counts as cell-based. The conditions noted are these: inhibition of IL-17A levels; primary human CD4+ T cells differentiated into Th17 cells, 46-hour incubation. Summed up: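 Cryopreserved primary human CD4+ T cells were activated with anti-CD3/CD28 beads and driven to Th17 with TGF-β, IL-6, IL-23 and IL-1β in the presence of compound (2-500 nM or 4-1000 nM) for 46 h at 37° C. Supernatant IL-17A was quantified by HTRF against a standard curve and normalized to DMSO. IC50s came from variable-slope fits, with viability read by CyQuant.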
On the technique in general: In TR-FRET formats the signal depends on donor and acceptor labels being close together.

Experiment [2] relates to NRF2. Put plainly: AREc32 luciferase reporter assay. The conditions noted are these: EC2×: concentration required to increase GST ARE Luciferase reporter activity by 2-fold; AREc32 cells, 19 hours. It counts as cell-based, human. Put shortly:
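AREc32 cells (MCF-7 stably carrying eight rat GSTA2 ARE copies driving firefly luciferase) treated 19 h with compound (0.4–200 nM or 2–1000 nM), triplicate. Luminescence normalized to DMSO as fold-induction; variable-slope fit capped at 50-fold; EC2× = concentration giving 2-fold induction.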
In general terms: Reporter assays use an easily measured gene product as a stand-in for the process of interest.

Experiment [3] has as its target T1, human RORγ (Homo sapiens, UniProt P51449).
T1 sequence (P51449 269-508 limits assumed): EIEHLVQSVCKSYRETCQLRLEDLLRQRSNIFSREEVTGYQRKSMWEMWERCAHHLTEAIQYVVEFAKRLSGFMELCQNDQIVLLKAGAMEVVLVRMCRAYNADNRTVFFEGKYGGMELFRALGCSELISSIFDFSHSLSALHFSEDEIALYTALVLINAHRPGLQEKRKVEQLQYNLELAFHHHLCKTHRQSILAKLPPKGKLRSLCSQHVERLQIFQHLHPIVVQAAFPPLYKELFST
Put plainly: RORγ assay (GAL4-RORγ hybrid luciferase reporter, inverse-agonist activity). It counts as cell-based. The conditions noted are these: GAL4-RORγ hybrid reporter cells, 23 hours. Put shortly:
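Human cell line expressing GAL4-DBD/RORγ hybrid with UAS-driven luciferase, treated in triplicate with compound (0.4–200 nM or 2–1000 nM) for 23 h at 37 °C. Luminescence normalized to DMSO; viability measured in parallel by multiplex assay. IC50 for RORγ and viability by variable-slope nonlinear regression.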

Experiment [4] deals with IFNγ-induced Nitric Oxide production. The experiment is described as follows: Nitric oxide production assay in RAW 264.7 mouse macrophages. It counts as cell-based. The conditions noted are these: RAW264.7, suppression of IFNγ-induced NO production normalized to cell viability (WST-1), RAW 264.7, 24 hours IFNγ. Summed up:
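Cells pre-treated 2 h with compound (0.4-200 nM or 2-1000 nM) in RPMI 1640 + 0.5% FBS, then stimulated with recombinant mouse IFNγ for 24 h at 37 °C. Nitrite measured by Griess reagent, viability by WST-1; IC50 from NO suppression normalized to viability and to DMSO/IFNγ controls.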
Background: Tetrazolium dyes change colour on reduction, which living cells bring about.

What is called IC50 is the concentration that gives 50% inhibition. Lower therefore signals inhibition by little substance. Consider `CC(=O)OC[C@]1(C)C(=O)C(C#N)=C[C@]2(C)C3=CC(=O)[C@@H]4[C@@H]5CC(C)(C)CC[C@]5(c5nc(C)no5)CC[C@@]4(C)[C@]3(C)CC[C@H]21` [Compound T46, ((4R,4aR,6aS,6bR,8aS,12aS,12bR,14bS)-2-cyano-4,6a,6b, 11,11,14b-hexamethyl-8a-(3-methyl-1,2,4-oxadiazol-5-yl)-3,13-dioxo-3,4,4a,5,6,6a,6b,7,8,8a,9,10,11,12,12a,12b,13,14b-octadecahydropicen-4-yl)methyl acetate], for which the IC50 is 13 nM in experiment [1], 115 nM in experiment [3] and 101 nM in experiment [4]. Moreover, the “EC2x: concentration giving 2-fold induction of ARE luciferase reporter” value in experiment [2] was determined as 366 nM.

Regarding `COC(=O)N[C@]12CCC(C)(C)C[C@H]1[C@H]1C(=O)C=C3[C@@]4(C)C=C(C#N)C(=O)[C@@](C)(CO)[C@@H]4CC[C@@]3(C)[C@]1(C)CC2` [Compound T40, methyl ((4aS,6aR,6bS,8aR,9R,12aS,14aR,14bS)-11-cyano-9-(hydroxymethyl)-2,2,6a,6b,9,12a-hexamethyl-10,14-dioxo-1,3,4,5,6,6a,6b,7,8,8a,9,10,12a,14,14a,14b-hexadecahydropicen-4a(2H)-yl)carbamate], the IC50 worked out at 37 nM in experiment [1], 698 nM in experiment [3] and 24.6 nM in experiment [4]. In addition, the “EC2x: concentration giving 2-fold induction of ARE luciferase reporter” value in experiment [2] is listed as 130 nM.

`COC(=O)N[C@]12CCC(C)(C)C[C@H]1[C@H]1C(=O)C=C3[C@@]4(C)C=C(C#N)C(=O)[C@@](C)(O)[C@@H]4CC[C@@]3(C)[C@]1(C)CC2` [Compound T39, methyl ((4aS,6aR,6bS,8aR,9S,12aS,14aR,14bS)-11-cyano-9-hydroxy-2,2,6a,6b,9,12a-hexamethyl-10,14-dioxo-1,3,4,5,6,6a,6b,7,8,8a,9,10,12a,14,14a,14b-hexadecahydropicen-4a(2H)-yl)carbamate]: the IC50 in experiment [1] turned out to be 47 nM; in experiment [3] it was 364 nM; in experiment [4] it was 91.2 nM. In addition, in experiment [2], the “EC2x: concentration giving 2-fold induction of ARE luciferase reporter” value stood at 218 nM.

Turning to `CN(C)C(=O)[C@]12CCC(C)(C)C[C@H]1[C@H]1C(=O)C=C3[C@@]4(C)C=C(C#N)C(=O)[C@@](C)(O)[C@@H]4CC[C@@]3(C)[C@]1(C)CC2` [Compound T30, (4aS,6aR,6bS,8aR,9S,12aS,14aR,14bS)-11-cyano-9-hydroxy-N,N,2,2,6a,6b,9,12a-octamethyl-10,14-dioxo-1,3,4,5,6,6a,6b,7,8,8a,9,10,12a,14,14a,14b-hexadecahydropicene-4a(2H)-carboxamide], the IC50 in experiment [1] stood at 59 nM; in experiment [3], 164 nM; in experiment [4], 173 nM. In addition, the “EC2x: concentration giving 2-fold induction of ARE luciferase reporter” value in experiment [2] was found to be 448 nM.

`COC(=O)N[C@]12CCC(C)(C)C[C@H]1[C@H]1C(=O)C=C3[C@@]4(C)C=C(C#N)C(=O)[C@@](C)(COC(C)=O)[C@@H]4CC[C@@]3(C)[C@]1(C)CC2` [Compound T41, ((4R,4aR,6aS,6bR,8aS,12aS,12bR,14bS)-2-cyano-8a-((methoxycarbonyl)amino)-4,6a,6b, 11,11,11,14b-hexamethyl-3,13-dioxo-3,4,4a,5,6,6a,6b,7,8,8a,9,10,11,12,12a,12b,13,14b-octadecahydropicen-4-yl)methyl acetate]: the IC50 in experiment [1] was determined as 35 nM; in experiment [3], 135 nM; in experiment [4], 151 nM. Further, in experiment [2], the “EC2x: concentration giving 2-fold induction of ARE luciferase reporter” value is listed as 330 nM.

As to `Cc1noc([C@]23CCC(C)(C)C[C@H]2[C@H]2C(=O)C=C4[C@@]5(C)C=C(C#N)C(=O)[C@@](C)(O)[C@@H]5CC[C@@]4(C)[C@]2(C)CC3)n1` [Compound T47, (4S,4aR,6aS,6bR,8aS,12aS,12bR,14bS)-4-hydroxy-4,6a,6b, 11,11,14b-hexamethyl-8a-(3-methyl-1,2,4-oxadiazol-5-yl)-3,13-dioxo-3,4,4a,5,6,6a,6b,7,8,8a,9,10,11,12,12a,12b,13,14b-octadecahydropicene-2-carbonitrile], the IC50 worked out at 17 nM in experiment [1], 139 nM in experiment [3] and 35.8 nM in experiment [4]. Also, in experiment [2], the “EC2x: concentration giving 2-fold induction of ARE luciferase reporter” value is 79 nM.

Turning to `COC(=O)[C@]12CCC(C)(C)C[C@H]1[C@H]1C(=O)C=C3[C@@]4(C)C=C(C#N)C(=O)[C@@](C)(C(N)=O)[C@@H]4CC[C@@]3(C)[C@]1(C)CC2` [Compound T15, methyl (4aS,6aR,6bS,8aR,9S,12aS,14aR,14bS)-9-carbamoyl-11-cyano-2,2,6a,6b,9,12a-hexamethyl-10,14-dioxo-1,3,4,5,6,6a,6b,7,8,8a,9,10,12a,14,14a,14b-hexadecahydropicene-4a(2H)-carboxylate], the IC50 in experiment [1] came to 65 nM; in experiment [3], 206 nM; in experiment [4], 714 nM. Also, in experiment [2], the “EC2x: concentration giving 2-fold induction of ARE luciferase reporter” value was 612 nM.

`CNC(=O)[C@]1(C)C(=O)C(C#N)=C[C@]2(C)C3=CC(=O)[C@@H]4[C@@H]5CC(C)(C)CC[C@]5(C(=O)OC)CC[C@@]4(C)[C@]3(C)CC[C@@H]12` [Compound T13, methyl (4aS,6aR,6bS,8aR,9S,12aS,14aR,14bS)-11-cyano-2,2,6a,6b,9,12a-hexamethyl-9-(methylcarbamoyl)-10,14-dioxo-1,3,4,5,6,6a,6b,7,8,8a,9,10,12a,14,14a,14b-hexadecahydropicene-4a(2H)-carboxylate]: the IC50 in experiment [1] turned out to be 49 nM; in experiment [3], 161 nM; in experiment [4], 295 nM. In addition, the “EC2x: concentration giving 2-fold induction of ARE luciferase reporter” value in experiment [2] was 567 nM.

Consider `COC(=O)N[C@]12CCC(C)(C)C[C@H]1[C@H]1C(=O)C=C3[C@@]4(C)C=C(C#N)C(=O)C(C)(C)[C@@H]4CC[C@@]3(C)[C@]1(C)CC2` [Comparison Compound #7, reference compound], for which the IC50 in experiment [1] was 27 nM; in experiment [3], 371 nM; in experiment [4], 2.4 nM. The “EC2x: concentration giving 2-fold induction of ARE luciferase reporter” value in experiment [2] was found to be 20 nM.

As to `Cc1noc([C@]23CCC(C)(C)C[C@H]2[C@H]2C(=O)C=C4[C@@]5(C)C=C(C#N)C(=O)[C@@](C)(CO)[C@@H]5CC[C@@]4(C)[C@]2(C)CC3)n1` [Compound T45, (4R,4aR,6aS,6bR,8aS,12aS,12bR,14bS)-4-(hydroxymethyl)-4,6a,6b, 11,11,14b-hexamethyl-8a-(3-methyl-1,2,4-oxadiazol-5-yl)-3,13-dioxo-3,4,4a,5,6,6a,6b,7,8,8a,9,10,11,12,12a,12b,13,14b-octadecahydropicene-2-carbonitrile], the IC50 in experiment [1] turned out to be 17 nM; in experiment [3], 165 nM; in experiment [4] it was 6.9 nM. Further, the “EC2x: concentration giving 2-fold induction of ARE luciferase reporter” value in experiment [2] was 47 nM.

Regarding `COC(=O)[C@]12CCC(C)(C)C[C@H]1[C@H]1C(=O)C=C3[C@@]4(C)C=C(C#N)C(=O)[C@@](C)(C(F)F)[C@@H]4CC[C@@]3(C)[C@]1(C)CC2` [Compound T4, methyl (4aS,6aR,6bS,8aR,9S,12aS,14aR,14bS)-11-cyano-9-(difluoromethyl)-2,2,6a,6b,9,12a-hexamethyl-10,14-dioxo-1,3,4,5,6,6a,6b,7,8,8a,9,10,12a,14,14a,14b-hexadecahydropicene-4a(2H)-carboxylate], the values for the 50% inhibitory concentration (IC50) in experiment [1], in experiment [3] and in experiment [4] were 29 nM, 234 nM and 19.6 nM, respectively. In addition, the “EC2x: concentration giving 2-fold induction of ARE luciferase reporter” value in experiment [2] turned out to be 36 nM.

In the case of `COCOC[C@]1(C)C(=O)C(C#N)=C[C@]2(C)C3=CC(=O)[C@@H]4[C@@H]5CC(C)(C)CC[C@]5(C(=O)OC)CC[C@@]4(C)[C@]3(C)CC[C@H]21` [Compound T7, methyl (4aS,6aR,6bS,8aR,9R,12aS,14aR,14bS)-11-cyano-9-((methoxymethoxy)methyl)-2,2,6a,6b,9,12a-hexamethyl-10,14-dioxo-1,3,4,5,6,6a,6b,7,8,8a,9,10,12a,14,14a,14b-hexadecahydropicene-4a(2H)-carboxylate], the IC50 was 27 nM in experiment [1], 251 nM in experiment [3] and 95.1 nM in experiment [4]. For the same molecule, the “EC2x: concentration giving 2-fold induction of ARE luciferase reporter” value in experiment [2] is 270 nM.

The record behind these values is patent US11584775B2, “C4-modified oleanolic acid derivatives for inhibition of IL-17 and other uses” (REATA PHARMACEUTICALS, INC., priority 2015, dated 2023).
